The source of these data is article PMC5867624, “Molecular Characterization of a Novel N-Acetylneuraminate Lyase from a Deep-Sea Symbiotic Mycoplasma” (Marine Drugs, 2018).

The target in data set [1] is T1, MyNal (Mycoplasma sp., UniProt A0A2P1G7E2). The data set can be described thus: HPLC of Neu5Ac formed, synthesis. The following applies: synthesis direction; 20 mM pyruvate fixed; 20 mM phosphate pH 7.0; optimal temperature (65 °C). Also noted: gene nanA.
Data set [2] deals with T1, MyNal. The data set can be described thus: LDH/NADH coupled spectrophotometric assay, […] nm, cleavage. It counts as biochemical. Also noted: gene nanA; full-length gene (885 bp) in pET-32a(+), fusion tags kept, about 52 kDa, E. coli BL21(DE3), Ni-NTA. The following applies: cleavage direction; 20 mM phosphate pH 7.0; optimal temperature and pH (optimum 70 °C).
Data set [3] deals with CC(=O)C(=O)O. The data set can be described thus: purified protein. The following applies: synthesis direction, 20 mM ManNAc fixed, 20 mM phosphate pH 7.0, optimal temperature (65 °C).

T1 sequence (A0A2P1G7E2 1-294): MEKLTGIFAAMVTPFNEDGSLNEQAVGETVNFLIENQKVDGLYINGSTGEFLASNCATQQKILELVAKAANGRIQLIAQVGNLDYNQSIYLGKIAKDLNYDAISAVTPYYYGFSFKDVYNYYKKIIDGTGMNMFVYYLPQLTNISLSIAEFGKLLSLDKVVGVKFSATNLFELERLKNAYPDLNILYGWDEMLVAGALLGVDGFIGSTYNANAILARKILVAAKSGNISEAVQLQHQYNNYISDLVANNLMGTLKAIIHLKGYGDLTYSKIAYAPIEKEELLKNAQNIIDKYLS

For orientation: Km means the concentration of substrate that gives half-maximal velocity. Turning to `CC(=O)N[C@@H]1C(O)O[C@H](CO)[C@@H](O)[C@@H]1O` (stereo partly drawn) [ManNAc], in data set [1], the Km was 6.9 ± 0.5 mM.

On to `CC(=O)N[C@H]1[C@H]([C@H](O)[C@H](O)CO)OC(O)(C(=O)O)C[C@@H]1O` (stereo partly drawn) [Neu5Ac], for which the Km in data set [2] was found to be 1.8 ± 0.2 mM.

Regarding MyNal (Mycoplasma sp.), in data set [3], the Km amounted to 5.9 ± 0.9 mM.
